Among the data in patent publication US20250034135A1, “ANTI-APOPTOTIC PROTEIN BCL-2 INHIBITOR, PHARMACEUTICAL COMPOSITION AND USES THEREOF” (HANGZHOU HEALZEN THERAPEUTICS CO., LTD., priority 2021, published 2025) are IC50 values, retold here.

In this assay the target is BCL2 (Homo sapiens (Human), UniProt P10415). Nature of the assay: Molecular level activity test of anti-apoptotic protein BCL2 (HTRF, binding to Bim peptide). The settings on record: HTRF, binding of BCL2 to Bim peptide; read-out: BCL2 nM (inhibitory activity, IC50). A digest of the protocol: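 Compound (2% DMSO) was mixed with His-tagged recombinant BCL2 and biotinylated Bim peptide for 1 h. Detection used anti-His antibody plus streptavidin-XL665 for 4 h at room temperature, read by time-resolved fluorescence.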
Sequence of BCL2 (P10415 whole entry): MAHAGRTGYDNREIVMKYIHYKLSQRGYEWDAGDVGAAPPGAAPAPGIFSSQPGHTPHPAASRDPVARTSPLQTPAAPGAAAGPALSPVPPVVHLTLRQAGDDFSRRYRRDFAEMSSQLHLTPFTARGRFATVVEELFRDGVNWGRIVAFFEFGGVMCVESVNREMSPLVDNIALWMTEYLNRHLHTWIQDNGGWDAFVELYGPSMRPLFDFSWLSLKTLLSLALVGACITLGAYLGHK
The IC50 is the concentration at which inhibition is half-maximal. On to `COc1ccc(CN2CCN(C3CC4(CCN(c5cc(Oc6cnc7[nH]ccc7c6)c(C(=O)NS(=O)(=O)c6cc([N+](=O)[O-])c(NCC7(F)CCOCC7)c7c6OCO7)cc5F)CC4)C3)[C@H](c3ccccc3C(C)C)C2)cc1` [compound 106, (R)-2-((1H-pyrrolo[2,3-b]pyrid-5-yl)oxy)-5-fluoro-N-((7-(((4-fluorotetrahydro-2H-pyran-4-yl)methyl)amino)-6-nitrobenzo[d][1,3]dioxocyclopent-4-yl)sulfonyl)-4-(2-(2-(2-isopropylphenyl)-4-(4-methoxybenzyl)piperazin-1-yl)-7-azaspiro[3.5]non-7-yl)benzamide], for which the IC50 was below 0.01 µM.
As for `COc1ccc(CN2CCN(C3CC4(CCN(c5cc(Oc6cnc7[nH]ccc7c6)c(C(=O)NS(=O)(=O)c6cc([N+](=O)[O-])c(NCC7(F)CCOCC7)c7ocnc67)cc5F)CC4)C3)[C@H](c3ccccc3C(C)C)C2)cc1` [compound 107, (R)-2-((1H-pyrrolo[2,3-b]pyrid-5-yl)oxy)-5-fluoro-N-((7-(((4-fluorotetrahydro-2H-pyran-4-yl)methyl)amino)-6-nitrobenzo[d]oxazol-4-yl)sulfonyl)-4-(2-(2-(2-isopropylphenyl)-4-(4-methoxybenzyl)piperazin-1-yl)-7-azaspiro[3.5]non-7-yl)benzamide], the figure is below 0.01 µM.
As for `COc1ccc(CN2CCN(C3CC4(CCN(c5cc(Oc6cnc7[nH]ccc7c6)c(C(=O)NS(=O)(=O)c6cc([N+](=O)[O-])c(NCC7(F)CCOCC7)c7scnc67)cc5F)CC4)C3)[C@H](c3ccccc3C(C)C)C2)cc1` [compound 108], the IC50 was below 0.01 µM.
As for `COc1ccc(CN2CCN(C3CC4(CCN(c5cc(Oc6cnc7[nH]ccc7c6)c(C(=O)NS(=O)(=O)c6cc([N+](=O)[O-])c(NCC7(F)CCOCC7)c7occc67)cc5F)CC4)C3)[C@H](c3ccccc3C(C)C)C2)cc1` [compound 109, (R)-2-((1H-pyrrolo[2,3-b]pyrid-5-yl)oxy)-5-fluoro-N-((7-(((4-fluorotetrahydro-2H-pyran-4-yl)methyl)amino)-6-nitrobenzofuran-4-yl)sulfonyl)-4-(2-(2-(2-isopropylphenyl)-4-(4-methoxybenzyl)piperazin-1-yl)-7-azaspiro[3.5]non-7-yl)benzamide], the figure is below 0.01 µM; as for `COc1ccc(CN2CCN(C3CC4(CCN(c5cc(Oc6cnc7[nH]ccc7c6)c(C(=O)NS(=O)(=O)c6cc([N+](=O)[O-])c(NCC7(F)CCOCC7)c7c6OCCO7)cc5F)CC4)C3)[C@H](c3ccccc3C(C)C)C2)cc1` [compound 110, (R)-2-((1H-pyrrolo[2,3-b]pyrid-5-yl)oxy)-5-fluoro-N-((8-(((4-fluorotetrahydro-2H-pyran-4-yl)methyl)amino)-7-nitro-2,3-dihydrobenzo[b][1,4]dioxane-5yl)sulfonyl)-4-(2-(2-(2-isopropylphenyl)-4-(4-methoxybenzyl)piperazin-1-yl)-7-azaspiro[3.5]non-7-yl)benzamide], below 0.01 µM; as for `COc1ccc(CN2CCN(C3CC4(CCN(c5cc(Oc6cnc7[nH]ccc7c6)c(C(=O)NS(=O)(=O)c6cc([N+](=O)[O-])c(NCC7(F)CCOCC7)c7oc(C)cc67)cc5F)CC4)C3)[C@H](c3ccccc3C(C)C)C2)cc1` [compound 111, (R)-2-((1H-pyrrolo[2,3-b]pyrid-5-yl)oxy)-5-fluoro-N-((7-(((4-fluorotetrahydro-2H-pyran-4-yl)methyl)amino)-2-methyl-6-nitrobenzofuran-4-yl)sulfonyl)-4-(2-(2-(2-isopropylphenyl)-4-(4-methoxybenzyl)piperazin-1-yl)-7-azaspiro[3.5]non-7-yl)benzamide], below 0.01 µM.
For `COc1ccc(CN2CCN(C3CC4(CCN(c5cc(Oc6cnc7[nH]ccc7c6)c(C(=O)NS(=O)(=O)c6cc([N+](=O)[O-])c(NCC7(F)CCOCC7)c7c6CCO7)cc5F)CC4)C3)[C@H](c3ccccc3C(C)C)C2)cc1` [compound 112, (R)-2-((1H-pyrrolo[2,3-b]pyrid-5-yl)oxy)-5-fluoro-N-((7-(((4-fluorotetrahydro-2H-pyran-4-yl)methyl)amino)-6-nitro-2,3-dihydrobenzofuran-4-yl)sulfonyl)-4-(2-(2-(2-isopropylphenyl)-4-(4-methoxybenzyl)piperazin-1-yl)-7-azaspiro[3.5]non-7-yl)benzamide], the IC50 was below 0.01 µM.
With `COc1ccc(CN2CCN(C3CC4(CCN(c5cc(Oc6cnc7[nH]ccc7c6)c(C(=O)NS(=O)(=O)c6cc([N+](=O)[O-])c(NC[C@H]7CC[C@](C)(O)CC7)c7c6OCO7)cc5F)CC4)C3)[C@H](c3ccccc3C(C)C)C2)cc1` [compound 113, 2-((1H-pyrrolo[2,3-b]pyrid-5-yl)oxy)-5-fluoro-N-((7-((((1r, 4r)-4-hydroxy-4-methylcyclohexyl)methyl)amino)-6-nitrobenzo[d][1,3]dioxocyclopent-4-yl)sulfonyl)-4-(2-((R)-2-(2-isopropylphenyl)-4-(4-methoxybenzyl)piperazin-1-yl)-7-azaspiro[3.5]non-7-yl)benzamide] the figure was below 0.01 µM; with `COc1ccc(CN2CCN(C3CC4(CCN(c5cc(Oc6cnc7[nH]ccc7c6)c(C(=O)NS(=O)(=O)c6cc([N+](=O)[O-])c(NC[C@H]7CC[C@](C)(O)CC7)c7ocnc67)cc5F)CC4)C3)[C@H](c3ccccc3C(C)C)C2)cc1` [compound 114, 2-((1H-pyrrolo[2,3-b]pyrid-5-yl)oxy)-5-fluoro-N-((7-((((1r, 4r)-4-hydroxy-4-methylcyclohexyl)methyl)amino)-6-nitrobenzo[d]oxazol-4-yl)sulfonyl)-4-(2-((R)-2-(2-isopropylphenyl)-4-(4-methoxybenzyl)piperazin-1-yl)-7-azaspiro[3.5]non-7-yl)benzamide], below 0.01 µM; with `COc1ccc(CN2CCN(C3CC4(CCN(c5cc(Oc6cnc7[nH]ccc7c6)c(C(=O)NS(=O)(=O)c6cc([N+](=O)[O-])c(NC[C@H]7CC[C@](C)(O)CC7)c7occc67)cc5F)CC4)C3)[C@H](c3ccccc3C(C)C)C2)cc1` [compound 115, 2-((1H-pyrrolo[2,3-b]pyrid-5-yl)oxy)-5-fluoro-N-((7-((((1r, 4r)-4-hydroxy-4-methylcyclohexyl)methyl)amino)-6-nitrobenzofuran-4-yl)sulfonyl)-4-(2-((R)-2-(2-isopropylphenyl)-4-(4-methoxybenzyl)piperazin-1-yl)-7-azaspiro[3.5]non-7-yl)benzamide], below 0.01 µM.
As for `COc1ccc(CN2CCN(C3CC4(CCN(c5cc(Oc6cnc7[nH]ccc7c6)c(C(=O)NS(=O)(=O)c6cc([N+](=O)[O-])c(NC[C@H]7CC[C@](C)(O)CC7)c7scnc67)cc5F)CC4)C3)[C@H](c3ccccc3C(C)C)C2)cc1` [compound 116, 2-((1H-pyrrolo[2,3-b]pyrid-5-yl)oxy)-5-fluoro-N-((7-((((1r, 4r)-4-hydroxy-4-methylcyclohexyl)methyl)amino)-6-nitrobenzo[d]thiazol-4-yl)sulfonyl)-4-(2-((R)-2-(2-isopropylphenyl)-4-(4-methoxybenzyl)piperazin-1-yl)-7-azaspiro[3.5]non-7-yl)benzamide], the figure is below 0.01 µM.
On to `COc1ccc(CN2CCN(C3CC4(CCN(c5cc(Oc6cnc7[nH]ccc7c6)c(C(=O)NS(=O)(=O)c6cc([N+](=O)[O-])c(NC[C@H]7CC[C@](C)(O)CC7)c7oc(C)cc67)cc5F)CC4)C3)[C@H](c3ccccc3C(C)C)C2)cc1` [compound 117, 2-((1H-pyrrolo[2,3-b]pyrid-5-yl)oxy)-5-fluoro-N-((7-((((1r, 4r)-4-hydroxy-4-methylcyclohexyl)methyl)amino)-2-methyl-6-nitrobenzofuran-4-yl)sulfonyl)-4-(2-((R)-2-(2-isopropylphenyl)-4-(4-methoxybenzyl)piperazin-1-yl)-7-azaspiro[3.5]non-7-yl)benzamide], for which the IC50 was below 0.01 µM.
As for `COc1ccc(CN2CCN(C3CC4(CCN(c5cc(Oc6cnc7[nH]ccc7c6)c(C(=O)NS(=O)(=O)c6cc([N+](=O)[O-])c(NC[C@H]7CC[C@](C)(O)CC7)c7c6OCCO7)cc5F)CC4)C3)[C@H](c3ccccc3C(C)C)C2)cc1` [compound 118, 2-((1H-pyrrolo[2,3-b]pyrid-5-yl)oxy)-5-fluoro-N-((8-((((1r, 4r)-4-hydroxy-4-methylcyclohexyl)methyl)amino)-7-nitro-2,3-dihydrobenzo[b][1,4]dioxan-5-yl)sulfonyl)-4-(2-((R)-2-(2-isopropylphenyl)-4-(4-methoxybenzyl)piperazin-1-yl)-7-azaspiro[3.5]non-7-yl)benzamide], the figure is below 0.01 µM; as for `COc1ccc(CN2CCN(C3CC4(CCN(c5cc(Oc6cnc7[nH]ccc7c6)c(C(=O)NS(=O)(=O)c6cc([N+](=O)[O-])c(NC[C@H]7CC[C@](C)(O)CC7)c7c6CCO7)cc5F)CC4)C3)[C@H](c3ccccc3C(C)C)C2)cc1` [compound 119, 2-((1H-pyrrolo[2,3-b]pyrid-5-yl)oxy)-5-fluoro-N-((7-((((1r, 4r)-4-hydroxy-4-methylcyclohexyl)methyl)amino)-6-nitro-2,3-dihydrobenzofuran-4-yl)sulfonyl)-4-(2-((R)-2-(2-isopropylphenyl)-4-(4-methoxybenzyl)piperazin-1-yl)-7-azaspiro[3.5]non-7-yl)benzamide], below 0.01 µM.
As to `COc1ccc(CN2CCN(C3CC4(CCN(c5cc(Oc6cnc7[nH]ccc7c6)c(C(=O)NS(=O)(=O)c6cc([N+](=O)[O-])c(NCC7CCOCC7)c7ocnc67)cc5F)CC4)C3)[C@H](c3ccccc3C(C)C)C2)cc1` [compound 121, (R)-2-((1H-pyrrolo[2,3-b]pyrid-5-yl)oxy)-5-fluoro-4-(2-(2-(2-isopropylphenyl)-4-(4-methoxybenzyl)piperazin-1-yl)-7-azaspiro[3.5]non-7-yl)-N-((6-nitro-7-(((tetrahydro-2H-pyran-4-yl)methyl)amino)benzo[d]oxazol-4-yl)sulfonyl)benzamide], the IC50 was below 0.01 µM.
